From patent US7071231B2, “Naphthalene ureas as glucose uptake enhancers” (Telik, Inc., priority 1999, dated 2006)

Assays:
STZ/HFD rats = assay: Multi-dosing in STZ/HFD rats; format: in vivo, rat; conditions: 30 mg/kg oral daily, 3 days (FIG. 14)
Procedure: Multi-Dosing in STZ/HFD Rats
STZ/HFD rats were prepared as in example 19. Compound 15 or an equivalent amount of the vehicle (PBS) was administered daily by the oral route at a dose of 30 mg/kg. Blood samples were taken by an IACUC-approved protocol (tail cap method) immediately before each dose and 4 and 6 (day one only) hours later. Blood glucose levels were measured using a Glucometer Elite (Bayer, Elkhart, Ind.). The blood glucose levels of the vehicle-treated group fell over the course of the experiment as the animals recovered from the low dose of STZ (FIG. 14).

ob/ob mouse = assay: Blood glucose, insulin and triglycerides in the ob/ob mouse model of Type 2 diabetes; format: in vivo; conditions: ob/ob mice, single dose 30 mg/kg, p.o.
Procedure: Lowering of Blood Glucose, Insulin and Triglycerides in the ob/ob Mouse Model of Type 2 Diabetes Another standard model of Type 2 diabetes is the ob/ob mouse. Male ob/ob mice (C57 BL/6J-ob) were housed 3–5 to a cage with free access to standard rodent chow pellets. After one week, they were given a single dose of Compound 15 (30 mg/kg, p.o.). Compound 15 produced a 13% decrease in blood glucose levels, a 42% decrease in plasma insulin levels, and a 15% decrease in plasma triglyceride levels. The concomitant reduction of plasma glucose and insulin levels are consistent with a reduction in insulin resistance.

db/db mouse = assay: Blood glucose level determination in db/db mouse; format: in vivo; conditions: compound intraperitoneally, with or without 0.01U insulin s.c.; 0-4 hr (FIGS. 8 and 9)
Procedure: Blood Glucose Level Determination in db/db Mouse.
An accepted model for Type 2 diabetes which has been used to establish the potential anti-diabetic activity of compounds is the db/db mouse. Seven to 9 week old male db/db mice (Jackson Laboratories, Bar Harbor, Me.), were used to the study of the effects of compounds on blood glucose levels. Animals were kept in a 12 h/12 h light/dark cycle, and experiments were initiated immediately after the dark period (7:00 a.m.). Food was removed at this time and returned after the final blood glucose measurement was taken.
Insulin (0.5U/ml, Humulin R, Catalog HI-201, Lilly, Indianapolis, Ind.) was prepared by diluting 100U/mL stock insulin 1:200 with PBS (phosphate buffered saline, Gibco, BRL). Compounds were prepared in a vehicle of either PBS or 20% DMSO in PBS.
Five to 10 animals (average weight 40–50 g) were used in each treatment condition. The animals were injected subcutaneously with either 0.01U insulin in PBS or PBS alone, followed by 0.1 mL of compound or its vehicle delivered intraperitoneally. Blood samples were taken 0 min, 15 min, 30 min, 1 hr, 2 hr and 4 hr after the administration of the drug or vehicle by tail bleeding. Glucose measurements were made with a Glucometer and Glucose strips (Bayer). […]

male CD rats = assay: Acute toxicity in CD rats; format: in vivo; conditions: p.o., 300 mg/kg in PBS
Procedure: Compound 15 was administered in PBS vehicle to male db/db mice (i.p.) and male CD rats (p.o.) at 300 mg/kg, which is approximately 10 times its effective dose.

human insulin receptor = target: T1, human insulin receptor (Homo sapiens, UniProt P06213); assay: Whole-cell phosphorylation assay (3T3HIR cells); format: cell-based; conditions: 15 min, anti-phosphotyrosine Western, various concentrations (FIG. 2)
T1 construct: expressed in transfected cells; host or cells: NIH 3T3 (3T3HIR)
Procedure: Whole-cell Phosphorylation Assay:
The initial step in insulin signaling is phosphorylation of the insulin receptor in response to insulin binding. NIH 3T3 cells overexpressing human insulin receptor (3T3HIR) were grown for 2 days at a density of 2×10^5/ml cells in 6 well culture dishes in DMEM with 10% FBS and L-glutamine. Prior to the experiment the cells were serum-starved overnight with DMEM with 0.1% BSA. The following morning, the cells were washed with PBS and the medium was replaced with 150 mM NaCl, 1.7 mM KCl, 0.9 mM CaCl2, K2HPO4 (pH 7.4), to which were added either the experimental compounds, or their vehicle (DMSO). Insulin or its vehicle (0.01% BSA) was diluted in the assay buffer (containing test compound or vehicle, respectively) to a final concentration of 2.5 nM. After incubating for 15 min, the cells were washed with cold PBS twice and lysed in 50 mM Tris.HCl, pH 7.4 150 mM NaCl, 0.25% sodium deoxycholate, 1% NP-40, 1 mM EGTA, 1 mM PMSF, 1 mM Na3VO4, 1 mM NaF, 1 ug/ml each of Aprotinin, Leupeptin and Pepstatin. The cell lysates were clarified by centrifugation at 12000 rpm, and the supernatants were estimated for protein concentration. Total cell lysate ([…]) was boiled with 2× SDS-PAGE sample buffer for 3 min and loaded into 7.5% SDS-PAGE along with Amersham rainbow marker protein as a molecular weight standard. […]

T1 sequence (P06213 763-1382 limits assumed): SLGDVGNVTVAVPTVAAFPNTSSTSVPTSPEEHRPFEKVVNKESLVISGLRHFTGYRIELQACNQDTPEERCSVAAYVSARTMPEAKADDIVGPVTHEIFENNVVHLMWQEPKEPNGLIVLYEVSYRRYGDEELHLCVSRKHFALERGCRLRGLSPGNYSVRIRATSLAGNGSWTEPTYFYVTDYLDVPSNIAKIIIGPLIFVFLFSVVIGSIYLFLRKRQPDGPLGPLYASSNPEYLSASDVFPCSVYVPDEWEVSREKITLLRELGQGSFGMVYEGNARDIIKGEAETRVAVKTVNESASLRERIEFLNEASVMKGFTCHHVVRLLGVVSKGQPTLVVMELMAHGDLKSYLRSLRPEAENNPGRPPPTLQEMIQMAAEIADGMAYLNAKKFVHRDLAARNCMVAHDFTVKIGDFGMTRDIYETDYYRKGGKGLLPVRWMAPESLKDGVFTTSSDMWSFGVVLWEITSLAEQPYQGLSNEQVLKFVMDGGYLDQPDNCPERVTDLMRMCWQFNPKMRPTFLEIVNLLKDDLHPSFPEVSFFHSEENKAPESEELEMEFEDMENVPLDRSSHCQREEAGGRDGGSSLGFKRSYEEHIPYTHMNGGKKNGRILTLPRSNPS
T1 sequence (P06213 28-758 partner limits assumed): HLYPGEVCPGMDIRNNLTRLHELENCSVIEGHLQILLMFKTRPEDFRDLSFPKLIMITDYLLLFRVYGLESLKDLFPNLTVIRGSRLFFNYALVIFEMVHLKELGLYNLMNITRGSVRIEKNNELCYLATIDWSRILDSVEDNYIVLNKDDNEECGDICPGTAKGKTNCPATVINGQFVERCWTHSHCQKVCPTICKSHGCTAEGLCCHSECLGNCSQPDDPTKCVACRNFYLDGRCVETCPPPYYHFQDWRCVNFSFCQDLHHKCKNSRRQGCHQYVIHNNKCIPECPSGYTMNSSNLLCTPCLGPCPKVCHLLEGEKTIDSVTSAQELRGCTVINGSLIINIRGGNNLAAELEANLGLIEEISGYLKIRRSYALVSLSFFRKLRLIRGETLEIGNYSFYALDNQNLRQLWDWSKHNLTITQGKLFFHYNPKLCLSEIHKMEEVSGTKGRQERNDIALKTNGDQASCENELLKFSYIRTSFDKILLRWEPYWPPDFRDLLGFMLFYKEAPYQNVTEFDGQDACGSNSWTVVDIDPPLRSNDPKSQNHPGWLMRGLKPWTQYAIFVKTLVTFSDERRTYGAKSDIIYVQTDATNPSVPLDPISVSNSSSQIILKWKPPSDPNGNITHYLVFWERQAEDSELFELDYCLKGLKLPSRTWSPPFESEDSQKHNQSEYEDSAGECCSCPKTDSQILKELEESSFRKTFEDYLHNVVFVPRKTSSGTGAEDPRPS

O=C(Nc1ccc2c(O)cc(S(=O)(=O)Nc3cccc(S(=O)(=O)O)c3)cc2c1)Nc1ccc2c(O)cc(S(=O)(=O)Nc3cccc(S(=O)(=O)O)c3)cc2c1 [Compound 15, 3-{[(4-hydroxy-7-{[N-(5-hydroxy-7-{[(3-sulfophenyl)amino]sulfonyl}(2-naphthyl))carbamoyl]amino}-2-naphthyl)sulfonyl]amino}benzenesulfonic acid]
blood glucose levels versus vehicle-treated group (STZ/HFD rats): lowered blood glucose levels below those of the vehicle-treated group by 6 hours after administration | decrease in blood glucose levels (ob/ob mouse): 13% | decrease in plasma insulin levels (ob/ob mouse): 42% | decrease in plasma triglyceride levels (ob/ob mouse): 15% | blood glucose levels in db/db mice (db/db mouse): acts in an insulin-independent manner to lower blood glucose levels | acute toxicity (male CD rats): No acute toxicity was seen | autophosphorylation of the insulin receptor in whole cells (human insulin receptor): increase of autophosphorylation
